Measured values: patent US3943172A, “Derivatives of 2-amino-(1,2,3,4-tetrahydronaphthalene), the preparation and use thereof” (priority 1972, dated 1976)

Assays:
[1] = tested on: tachycardias and fibrillation of ventricular origin; conditions: cited from earlier work; for oral activity: known antiarrhythmic agents, in words
[2] = tested on: premature heart contractions; assay: oral antiarrhythmic activity in rats using aconitine (dose of aconitine to first extrasystoles); type: in vivo; conditions: 75 mg/kg, 75 minutes before aconitine perfusion, acid addition salts; for % Activity versus Lidocaine: relative to lidocaine; for % Activity versus Procainamide: relative to procainamide
Description: The method used for these tests is described hereafter:
Male or female rats with a body-weight ranging from 380 to 450 g.
3.12 μg aconitine nitrate/1 ml physiological saline.
Solution of the compound to be tested:
0.75% in distilled water.
Six random selected animals are required for each compound to be tested. The compound is administered by oral route at the dose of 75 mg/kg (1 ml of the 0.75% solution/100 g of body-weight) 75 minutes before the intravenous perfusion of the aconitine solution is initiated.
Control groups of animals are treated only with distilled water (1 ml/100 g).
60 minutes after the administration of the compound to be tested, the animals are anesthesized by an intraperitoneal injection of Pentobarbital (50 mg/kg) and the jugular vein is dissected.
A catheter is introduced in the vein and fixed by a ligature.
The ECG (D II derivation) is then continuously recorded. The perfusion of the aconitine solution is started 75 minutes after the administration of the compound to be tested.
The volume delivered by the injection device being 0.287 ml/minute, the dose of aconitine nitrate administered is 0.895 μg/minute (0.20 - 0.24 μg/100 g/minute according to the minimal and maximal weight of the animals).
The experience is stopped as soon as the first extrasystoles are appearing and the time elapsed from the beginning of the perfusion is noted.
The results are expressed as the mean total dose of aconitine injected in a group of animals.
The relative activity between a tested compound and a reference substance (lidocaine, procainamide) is computed in the following way: [formula] where: A(x) = activity of tested compound X (in %)
X = mean dose of aconitine in the animals treated by compound X
C = mean dose of aconitine injected in the untreated animals (controls)
R = mean dose of aconitine injected in the animals treated by the reference substances.

SMILES: CCN(CC)CC(=O)Nc1c(C)cccc1C [lidocaine]
- oral activity [1]: too low

SMILES: CCNCCCN(c1ccccc1)C1CCc2ccccc2C1 (stereo not drawn) [2 H2 H NH-ethyl, 2-[N-phenyl-N-(γ-ethylaminopropyl)]-amino-(1,2,3,4-tetrahydronaphthalene)]
- % Activity versus Lidocaine [2]: 703%
- % Activity versus Procainamide [2]: 897%

SMILES: CCN(CC)CCN(c1ccccc1)C1CCc2cc(OC)ccc2C1 (stereo not drawn) [1 H2 OCH3 N-diethyl, 2-[N-phenyl-N-(β-diethylaminoethyl)]-amino-6-methoxy-(1,2,3,4-tetrahydronaphthalene)]
- % Activity versus Lidocaine [2]: 173%
- % Activity versus Procainamide [2]: 220%

SMILES: CNCCC(=O)N(c1ccccc1)C1CCc2ccccc2C1 (stereo not drawn) [2 0 H NH-methyl, 2-[N-phenyl-N-(β-methylaminopropionyl)]-amino-(1,2,3,4-tetrahydronaphthalene)]
- % Activity versus Lidocaine [2]: 769%
- % Activity versus Procainamide [2]: 982%

SMILES: CCN(CC)CCCN(c1ccccc1)C1CCc2ccccc2C1 (stereo not drawn) [2 H2 H N-diethyl, 2-[N-phenyl-N-(γ-diethylaminopropyl)]-amino-(1,2,3,4-tetrahydronaphthalene)]
- % Activity versus Lidocaine [2]: 563%
- % Activity versus Procainamide [2]: 719%

SMILES: COc1ccc2c(c1)CCC(N(CCN(C)C)c1ccccc1)C2 (stereo not drawn) [1 H2 OCH3 N-dimethyl, 2-[N-phenyl-N-(β-dimethylaminoethyl)]-amino-6-methoxy-(1,2,3,4-tetrahydronaphthalene)]
- % Activity versus Lidocaine [2]: 57%
- % Activity versus Procainamide [2]: 72%

SMILES: c1ccc(N(CCCN2CCCCC2)C2CCc3ccccc3C2)cc1 (stereo not drawn) [2 H2 H piperidino, 2-[N-phenyl-N-(γ-piperidinopropyl)]-amino-(1,2,3,4-tetrahydronaphthalene)]
- % Activity versus Lidocaine [2]: 62%
- % Activity versus Procainamide [2]: 78%

SMILES: CN(C)CCCN(c1ccccc1)C1CCc2ccccc2C1 (stereo not drawn) [2 H2 H N-dimethyl, 2-[N-phenyl-N-(γ-dimethylaminopropyl)]-amino-(1,2,3,4-tetrahydronaphthalene)]
- % Activity versus Lidocaine [2]: 41%
- % Activity versus Procainamide [2]: 52%

SMILES: CNCCCN(c1ccccc1)C1CCc2ccccc2C1 (stereo not drawn) [2 H2 H NH-methyl, 2-[N-phenyl-N-(γ-methylaminopropyl)]-amino-(1,2,3,4-tetrahydronaphthalene)]
- % Activity versus Lidocaine [2]: 288%
- % Activity versus Procainamide [2]: 368%

SMILES: CCN(CC)CCNC(=O)c1ccc(N)cc1 [procainamide]
- side effects [1]: hypotension
- oral activity [1]: too short

SMILES: c1ccc(N(CCCN2CCCC2)C2CCc3ccccc3C2)cc1 (stereo not drawn) [2 H2 H pyrrolidino, 2-[N-phenyl-N-(γ-pyrrolidinopropyl)]-amino-(1,2,3,4-tetrahydronaphthalene)]
- % Activity versus Lidocaine [2]: 268%
- % Activity versus Procainamide [2]: 342%

SMILES: CCN(CC)CCCN(c1ccccc1)C1CCc2cc(OC)ccc2C1 (stereo not drawn) [2 H2 OCH3 N-diethyl, 2-[N-phenyl-N-(γ-diethylaminopropyl)]-amino-6-methoxy-(1,2,3,4-tetrahydronaphthalene)]
- % Activity versus Lidocaine [2]: 96%
- % Activity versus Procainamide [2]: 123%

SMILES: CCN(CC)CCN(c1ccccc1)C1CCc2ccccc2C1 (stereo not drawn) [1 H2 H N-diethyl, 2-[N-phenyl-N-(β-diethylaminoethyl)]-amino(1,2,3,4-tetrahydronaphthalene)]
- % Activity versus Lidocaine [2]: 439%
- % Activity versus Procainamide [2]: 560%

SMILES: COc1ccc2c(c1)CCC(N(CCN1CCCCC1)c1ccccc1)C2 (stereo not drawn) [1 H2 OCH3 piperidino, 2-[N-phenyl-N-(β-piperidinoethyl)]-amino-6-methoxy-(1,2,3,4-tetrahydronaphthalene)]
- % Activity versus Lidocaine [2]: 103%
- % Activity versus Procainamide [2]: 131%
